Values after ≈ are worked out from the molar mass of the structure shown. A value given as a limit tells only on which side of the number the result lay.

What is called solubility (kinetic) is the concentration staying in solution when a stock, usually in DMSO, is diluted into the medium.

For the series the following is noted: buffer; pH 7.4; 200.0 µM.
Regarding `O=C(Nc1nccs1)c1ccc(Cl)nc1`, the kinetic solubility was greater than 36 µg/mL.
Next, `COc1ccc(N2CC(C(=O)N3CCCC(C)C3)CC2=O)cc1` (stereo not drawn): greater than 47.5 µg/mL; `CCC(=O)Nc1ccc(C(=O)OCc2ccccc2)cc1`: 8.6 µg/mL (≈ 30.4 µM).
The molecule `O=C(COc1ccc(Cl)cc1Br)OCC(=O)c1ccc[nH]1` displayed a solubility (kinetic) of 6 µg/mL (≈ 16.1 µM).
Molecule `CCOc1ccc(NC(=O)CCn2ccnc2)cc1` came in with a kinetic solubility greater than 38.9 µg/mL.
Take `Oc1[nH]c(=S)sc1C=C1N=c2ccccc2=N1`: the solubility (kinetic) was greater than 39.2 µg/mL.
Next, `CCN(C(=O)Nc1cccc(Cl)c1)c1ccccc1`: 18.6 µg/mL (≈ 67.7 µM).
The same measure for `CC(NC(=O)CCl)c1ccccc1Br` (stereo not drawn): greater than 41.5 µg/mL; for `CC(C)NC[C@H](O)COc1cccc2ccccc12.Cl`: greater than 44.4 µg/mL; for `Cc1ccc(O)c(Nc2ncnc3ccc([N+](=O)[O-])cc23)c1.Cl`: 9.6 µg/mL.
Next, `Cc1ccc(CNC(=O)CCCC(=O)c2ccccc2)cc1`: 7.9 µg/mL (≈ 26.7 µM); `COc1cc(C)cc(OC)c1OCC(=O)Nc1cc(C)on1`: 6.4 µg/mL (≈ 20.9 µM); `N/C(=N\S(=O)(=O)c1cccs1)c1ccccc1Cl`: greater than 45.1 µg/mL.
As for `O=c1oc2ccccc2c(NCCO)c1[N+](=O)[O-]`, the solubility (kinetic) is greater than 37.5 µg/mL.
For `CCOc1ncccc1C(=O)OCC(=O)NCc1ccccc1`, the solubility (kinetic) is 45.9 µg/mL (≈ 146 µM).
Next, `CCOC(=O)c1sc2ncnc(Nc3cccc(C(=O)O)c3)c2c1C`: greater than 53.6 µg/mL; `Cc1ccc(/C=C/C(=O)OCC(=O)NC(=O)NCc2ccccc2)cc1`: 3.8 µg/mL (≈ 10.8 µM).
Next, `Cc1cccc(NC(=O)Cc2ccc(-c3ccccc3)cc2)n1`: 3.6 µg/mL (≈ 11.9 µM); `c1ccc(CN2CCOCCOCCOCC2)cc1`: greater than 39.8 µg/mL; `Cc1ccc(S(=O)(=O)N2CCN(c3ccccc3)CC2)cc1`: less than 0.3 µg/mL.
Next, `CC1(C)C(c2cccs2)=[N+]([O-])C2(CCCCC2=O)N1O` (stereo not drawn): 41.4 µg/mL (≈ 141 µM).
With `CC(=O)Nc1ccc(S(=O)(=O)NCCc2c[nH]c3ccc(C)cc23)cc1`, the solubility (kinetic) is 33.8 µg/mL (≈ 91 µM).
`CN(C)c1cccc(C(=O)N/C=C/n2cnc3cc(C(F)(F)F)ccc32)c1` came in with a solubility (kinetic) of 0.4 µg/mL (≈ 1.07 µM).
Next, `OCC(O)C1OC(Nc2ccc(Br)cc2)C(O)C1O` (stereo not drawn): greater than 50.1 µg/mL; `CC(NC(=O)c1cc2ccccc2o1)c1ccccc1` (stereo not drawn): 37.6 µg/mL (≈ 142 µM); `CCCCCCNc1c([N+](=O)[O-])c(=O)sc2ccccc12`: 4.4 µg/mL (≈ 14.4 µM).
`O=C(Nc1ccsc1C(=O)O)c1cccc(C(F)(F)F)c1` had a kinetic solubility greater than 47.3 µg/mL.
Next, `CC(C)N(c1ccccc1)c1ccc(NC(=S)NCCN(C)C)cc1`: 44 µg/mL (≈ 123 µM); `CCn1c(CN(C)c2ccccc2)nc2ccccc21`: greater than 39.8 µg/mL; `COc1ccc(CCNC(=O)c2cc(=O)[nH]c3ccccc23)cc1`: 1.9 µg/mL (≈ 5.89 µM).
Next, `CCOc1ccccc1NC(=O)C1COc2ccccc2O1` (stereo not drawn): less than 0.6 µg/mL; `S=C(NCc1ccco1)Nc1cccc(Cl)c1Cl`: 11.3 µg/mL (≈ 37.5 µM).
Next, `CCOc1ccccc1NC(=O)Nc1cccc(NC(C)=O)c1`: greater than 47 µg/mL.
Turning to `CC(C)(C)c1cc(NS(=O)(=O)c2ccc(Br)s2)no1`, the kinetic solubility worked out at 30.1 µg/mL (≈ 82.4 µM).
Molecule `CC(C)(C)c1cc(NC(=O)Nc2ccccc2)no1` registered a solubility (kinetic) of 4.1 µg/mL (≈ 15.8 µM).
Next, `CC(=O)c1ccc(OCC(=O)NC(=O)NC2CCCCC2)cc1`: 9.3 µg/mL (≈ 29.2 µM); `O=C(Nc1cccc(O)c1)c1cccc(NC(=O)c2cccs2)c1`: greater than 50.8 µg/mL; `Cc1onc(-c2c(F)cccc2Cl)c1C(=O)Nc1ccc(S(=O)(=O)N2CCOCC2)cc1`: 2.3 µg/mL (≈ 4.79 µM).
The same measure for `Clc1ccc(N2CCN(Cc3ccco3)CC2)cc1`: 22.5 µg/mL (≈ 81.3 µM); for `O=C(COc1ccccc1[N+](=O)[O-])Nc1cc(Cl)ccc1C(=O)O`: greater than 52.6 µg/mL; for `CC(=O)c1ccc(NC(=S)N2CCCC2)cc1`: 35.4 µg/mL (≈ 143 µM).
`COc1cc(S(=O)(=O)NCc2ccncc2)c(OC)cc1C` yielded a solubility (kinetic) greater than 48.4 µg/mL.
Next, `O=C1CNC(=S)N1Cc1cccc(Cl)c1`: greater than 36.1 µg/mL; `O=C1Cc2ccccc2C(c2c(Cl)cccc2Cl)N1` (stereo not drawn): less than 0.6 µg/mL.
The same measure for `O=C(Nc1ccc(N2C(=O)CCC2=O)cc1Cl)c1cccs1`: greater than 50.2 µg/mL; for `Cc1ccccc1NC(=O)Nc1ccc2c(c1)OCO2`: 0.5 µg/mL (≈ 1.85 µM).
The same measure for `CC(C)(C)NC(=O)COC(=O)c1c2c(nc3ccccc13)CCC2`: 35.8 µg/mL (≈ 110 µM); for `Cc1ccc(/C=C/C(=O)O)cc1S(=O)(=O)NCc1cccnc1`: 46.9 µg/mL (≈ 141 µM).
Turning to `Cc1nc(Cl)c(N=Cc2cccc([N+](=O)[O-])c2)c(Cl)n1`, the solubility (kinetic) is greater than 46.7 µg/mL.
Molecule `CCOc1ccc(Nc2nc3c(C)cccc3cc2C#N)cc1` registered a solubility (kinetic) of less than 0.2 µg/mL.
For the molecule `O=C(Nc1ccc(Nc2ccccc2)cc1)c1ccc(Cl)cc1[N+](=O)[O-]`, the solubility (kinetic) was less than 0.3 µg/mL.
`COc1ccc(S(=O)(=O)NCCCc2ccccc2)cc1` registered a solubility (kinetic) of 40.8 µg/mL (≈ 134 µM).
Turning to `Cc1cccc(NS(=O)(=O)c2ccc3c(c2)NC(=O)CC(=O)N3)c1`, the solubility (kinetic) was greater than 51.8 µg/mL.
`CC(C)c1nc2oc3c(NCCO)ncnc3c2c2c1COC(C)(C)C2` gave a kinetic solubility of 48.9 µg/mL (≈ 137 µM).
Next, `CCN(CC)C(=O)CN1CCC(c2nc3cc(C)c(C)cc3[nH]2)CC1`: greater than 51.4 µg/mL; `Cc1c(Cl)cccc1NC(=S)NCc1ccco1`: 40.1 µg/mL (≈ 143 µM); `CC(C)(C)NC(=O)COC(=O)c1ccccc1C(=O)c1ccccc1`: 43.4 µg/mL (≈ 128 µM).
`CCCOc1ccc(C2=CSC3=NCCN23)cc1Cl` gave a kinetic solubility of 40.4 µg/mL (≈ 137 µM).
`O=S(=O)(Nc1ccncc1Cl)c1cccc(Cl)c1Cl` returned a kinetic solubility greater than 50.6 µg/mL.
On to `O=C(COC(=O)c1ccc(O)cc1)NC(c1ccccc1)c1ccccc1`, for which the kinetic solubility amounted to 1.7 µg/mL (≈ 4.7 µM).
Consider `COc1ccc(OCc2nc(-c3ccc(F)c(F)c3)cs2)cc1`, for which the kinetic solubility was less than 0.7 µg/mL.
On to `CS(=O)(=O)Nc1ccc2c(c1)OCC(=O)N2Cc1ccccc1`, for which the solubility (kinetic) turned out to be 42.4 µg/mL (≈ 128 µM).
In turn, `CC1CN(C(=O)COC(=O)c2cnc(Cl)c(Cl)c2)CC(C)O1` (stereo not drawn) registered a kinetic solubility greater than 52.1 µg/mL.
The same measure for `Cc1cc(C(=O)Nc2cccc(C)c2C)c2ccccc2n1`: 40.1 µg/mL (≈ 138 µM); for `O=C(COc1ccc2c(-c3ccccc3)cc(=O)oc2c1)NC(Cc1c[nH]c2ccccc12)C(=O)O` (stereo not drawn): greater than 72.4 µg/mL.
With `COc1ccc(CCNC(=O)COC(=O)c2cc3ccccc3oc2=O)cc1OC`, the kinetic solubility was greater than 61.7 µg/mL.
As to `CC(C)c1ccc(NC(=O)CCCC(=O)NCCc2ccccc2)cc1`, the solubility (kinetic) stood at 6 µg/mL (≈ 17 µM).
Molecule `Nc1cc(=O)[nH]c(SCC(=O)Nc2ccc(S(=O)(=O)N3CCCC3)cc2)n1` displayed a kinetic solubility greater than 61.4 µg/mL.
In turn, `Cc1ccc(N2C(=O)c3ccccc3C2=O)cc1` displayed a solubility (kinetic) of 2.7 µg/mL (≈ 11.4 µM).
Next, `O=C(Nc1cnccn1)c1ccc(Cl)cc1`: 34.7 µg/mL (≈ 149 µM); `CC/C(C)=N/Oc1nc(C)cc(C)n1`: 28.5 µg/mL (≈ 147 µM); `Cc1nc2c3c(sc2c(=O)[nH]1)NC(=O)CC3c1ccccc1Cl` (stereo not drawn): 1.5 µg/mL (≈ 4.34 µM).
Molecule `COc1ccccc1CNC(=O)COC(=O)c1ccc(S(=O)(=O)N2CCCCC2)cc1` had a solubility (kinetic) of 2.1 µg/mL (≈ 4.7 µM).
The same measure for `CC(C)N1C(=O)C2(OCCCO2)c2cc(Br)ccc21`: 46.9 µg/mL (≈ 144 µM).
Molecule `Cc1ccc(C(=O)N2CCN(c3ccccn3)CC2)cc1Cl` gave a kinetic solubility greater than 47.4 µg/mL.
For `Cc1nc(N2CCN(c3ccccc3F)CC2)[nH]c(=O)c1C`, the kinetic solubility stood at 14.6 µg/mL (≈ 48.3 µM).
As to `O=C(O)CN=CC1=C(O)CC(c2ccccc2)CC1=O` (stereo not drawn), the solubility (kinetic) was determined as 39.9 µg/mL (≈ 146 µM).
Next, `COc1cccc(CC(=O)Nc2ccc3c(c2)CCC3)c1`: 8.3 µg/mL (≈ 29.5 µM); `CCC(C)(C)c1ccc(Oc2ccc(N)cc2)cc1`: 4.2 µg/mL (≈ 16.4 µM); `Cc1ccccc1NC(=O)CN1CCN(C(=O)c2ccco2)CC1`: greater than 49.1 µg/mL.
`Cc1cc(C)cc(NC(=O)COC(=O)c2cc(C)oc2C)c1` returned a solubility (kinetic) of less than 0.6 µg/mL.
For `CCOC(=O)COc1cccc2c(=O)n(CC(N)=O)ccc12`, the solubility (kinetic) was determined as 24.4 µg/mL (≈ 80.2 µM).
Next, `C/C(=N\NC(=O)CCCNc1cccc(C)c1)c1ccncc1`: greater than 46.6 µg/mL.
The same measure for `Cc1ccc(NC(=O)C2Cc3ccccc3O/C2=N\O)cc1C` (stereo not drawn): 3.8 µg/mL (≈ 12.2 µM); for `CN(CC(=O)Nc1ccc(F)cc1)CC(=O)N1CCCCC1`: greater than 46.1 µg/mL.
The same measure for `O=C(COc1ncnc2cc(Cl)ccc12)c1ccccc1`: 3.2 µg/mL (≈ 10.7 µM); for `O=C(COc1ccc(F)cc1)Nc1nc2c(s1)CCCC2`: 2.6 µg/mL (≈ 8.49 µM); for `CC1CN(C(=O)c2cc3cc([N+](=O)[O-])ccc3oc2=O)CC(C)O1` (stereo not drawn): 46.1 µg/mL (≈ 139 µM).
The molecule `O=C(COC(=O)/C=C/c1ccccc1[N+](=O)[O-])NC(=O)NC1CCCC1` had a kinetic solubility of 7.7 µg/mL (≈ 21.3 µM).
With `CCN(CC)S(=O)(=O)c1cccc(NC(=O)COC(=O)c2cncc(Br)c2)c1`, the solubility (kinetic) stood at 40.3 µg/mL (≈ 85.7 µM).
The same measure for `Cc1nn(CC(=O)N(CC(C)C)C2CCS(=O)(=O)C2)c(C)c1[N+](=O)[O-]` (stereo not drawn): greater than 55.9 µg/mL; for `COC(=O)CCC(=O)Nc1nccs1`: greater than 32.1 µg/mL.
Molecule `C=CCn1c(SCC(=O)Nc2cc(C)on2)nnc1-c1ccccc1OC` had a kinetic solubility greater than 57.8 µg/mL.
The same measure for `O=S(=O)(c1ccc2c(c1)CCN2)N1CCCC1`: 36.1 µg/mL (≈ 143 µM); for `O=C(/C=C\c1ccco1)NC(=S)Nc1ccccc1O`: 42.6 µg/mL (≈ 148 µM); for `Cc1cc(C)c(S(=O)(=O)c2ccccc2C(C)C)c(=O)[nH]1`: 7.2 µg/mL (≈ 23.6 µM).
The same measure for `O=C(CNC(=O)COc1ccccc1)NCc1cccnc1`: greater than 44.9 µg/mL.
The same measure for `COc1ccccc1C(=O)C1CCCN(C(=O)C2CCCC2)C1` (stereo not drawn): greater than 47.3 µg/mL.
In the case of `O=S(=O)(Cc1noc(-c2ccccc2Cl)n1)c1ccccn1`, the kinetic solubility was determined as 37.2 µg/mL (≈ 111 µM).
For `COc1ccc(N(Cc2cc3cc(C)ccc3[nH]c2=O)C(C)=O)cc1`, the solubility (kinetic) turned out to be 47 µg/mL (≈ 140 µM).
The molecule `O=C(Nc1ccc(F)cc1)Nc1cccc(Br)c1` registered a solubility (kinetic) of 0.7 µg/mL (≈ 2.26 µM).
The same measure for `COc1ccc(-c2csc(Nc3ccccn3)n2)cc1`: less than 0.2 µg/mL; for `CCCn1c(=N)n(CC(O)c2ccc(C)cc2)c2ccccc21.Cl` (stereo not drawn): greater than 51.9 µg/mL.

The values are drawn from PubChem BioAssay AID1996.
